Biological target: T1, PLD1 (Homo sapiens, UniProt Q13393)
T1 construct: made in house
T1 sequence (Q13393 1-1074): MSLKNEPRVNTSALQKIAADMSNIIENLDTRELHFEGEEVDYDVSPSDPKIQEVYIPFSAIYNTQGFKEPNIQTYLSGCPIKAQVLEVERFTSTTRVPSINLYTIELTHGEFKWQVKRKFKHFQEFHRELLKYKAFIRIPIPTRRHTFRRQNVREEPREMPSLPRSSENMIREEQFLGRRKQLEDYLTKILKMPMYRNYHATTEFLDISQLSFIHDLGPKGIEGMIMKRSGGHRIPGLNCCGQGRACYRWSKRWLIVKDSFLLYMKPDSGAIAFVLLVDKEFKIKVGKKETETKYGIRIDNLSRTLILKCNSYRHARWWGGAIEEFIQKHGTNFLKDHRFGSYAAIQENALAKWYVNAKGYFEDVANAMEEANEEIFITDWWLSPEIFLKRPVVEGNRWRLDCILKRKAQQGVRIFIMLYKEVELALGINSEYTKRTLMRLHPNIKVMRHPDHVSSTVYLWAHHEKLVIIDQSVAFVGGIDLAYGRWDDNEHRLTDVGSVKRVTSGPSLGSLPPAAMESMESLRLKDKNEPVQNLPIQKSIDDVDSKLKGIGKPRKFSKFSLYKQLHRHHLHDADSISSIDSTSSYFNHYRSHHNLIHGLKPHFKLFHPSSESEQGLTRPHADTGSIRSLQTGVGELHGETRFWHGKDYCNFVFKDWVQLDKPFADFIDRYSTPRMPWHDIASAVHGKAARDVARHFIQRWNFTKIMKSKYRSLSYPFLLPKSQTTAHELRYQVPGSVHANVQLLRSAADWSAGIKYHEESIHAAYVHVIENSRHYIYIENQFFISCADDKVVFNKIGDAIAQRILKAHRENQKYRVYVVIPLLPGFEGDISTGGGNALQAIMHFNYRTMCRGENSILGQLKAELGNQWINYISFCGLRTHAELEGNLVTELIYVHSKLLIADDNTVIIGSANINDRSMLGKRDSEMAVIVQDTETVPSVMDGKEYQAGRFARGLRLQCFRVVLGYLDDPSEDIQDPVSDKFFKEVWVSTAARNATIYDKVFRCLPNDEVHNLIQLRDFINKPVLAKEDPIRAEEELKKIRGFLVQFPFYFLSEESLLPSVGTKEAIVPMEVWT
Experiment: In vitro PLD activity, exogenous substrate assay, PLD1
Format: biochemical
Conditions: purified recombinant PLD1 with ARF-1, 30 min at 37° C.
Protocol: In FIG. 13A, MDA-MB-231 cells were plated as in FIGS. 12A-C and then shifted to either 10% serum or 0.5% serum overnight as indicated. Honokiol (20 μM) or control ethanol was then added for 4 hr as indicated, at which time the cells were harvested and the levels of PBt were determined as in FIGS. 12A-C. The experiment shown is representative of at least three independent experiments. In FIG. 13B, the effect of honokiol on the activity of PLD isoforms was measured using exogenous substrate assay as described previously (Henage et al., “Kinetic Analysis of a Mammalian Phospholipase D: Allosteric Modulation by Monomeric GTPases, Protein Kinase C, and Polyphosphoinositides,” J. Biol. Chem. 281:3408-17 (2006), which is hereby incorporated by reference in its entirety). […] The amount of background was determined and subtracted using a bovine serum albumin standard. […]
For in vivo PLD activity, cells were plated in 60 mm culture dishes in DMEM with 10% serum at a density that would allow them to grow to about 80% confluence after 2 days, then cells were shifted to DMEM containing 0.5% or 10% serum as indicated in the figure legends overnight. […] Briefly, PLD activity was measured by the release of [methyl-^3H] choline from [choline-methyl-^3H]dipalmitoyl-phosphatidylcholine. […]

With `C=CCc1ccc(O)c(-c2ccc(O)c(CC=C)c2)c1` [honokiol, Honokiol] the “in vitro activity of PLD1” value was “no significant effect”.

Reference: patent US20120301895A1, “METHODS OF MODULATING BINDING OF SON OF SEVENLESS TO PHOSPHATIDIC ACID AND IDENTIFYING COMPOUNDS THAT MODULATE SUCH BINDING” (THE RESEARCH FOUNDATION OF STATE UNIVERSITY OF NEW YORK, priority 2007, published 2012)
